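Protocol summary: plate cells (96-well), add compound at 5 concentrations, incubate 48 h, interpolate endpoints linearly. GI50 marks 50% less growth. TGI: total growth inhibition.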
What was measured:
Assay in all cases: growth of human tumour cells (NCI), 48 h
BT-549 breast = tested on: BT-549 breast
CAKI-1 renal = tested on: CAKI-1 renal
RXF 393 renal = tested on: RXF 393 renal
DU-145 prostate = tested on: DU-145 prostate
HL-60(TB) leukemia = tested on: HL-60(TB) leukemia
NCI/ADR-RES ovarian = tested on: NCI/ADR-RES ovarian
786-0 renal = tested on: 786-0 renal
SF-295 CNS = tested on: SF-295 CNS
OVCAR-5 ovarian = tested on: OVCAR-5 ovarian
UO-31 renal = tested on: UO-31 renal
NCI-H226 lung = tested on: NCI-H226 lung
MDA-MB-231 breast = tested on: MDA-MB-231 breast
SF-539 CNS = tested on: SF-539 CNS
HS 578T breast = tested on: HS 578T breast
A498 renal = tested on: A498 renal
HCC-2998 colon = tested on: HCC-2998 colon
NCI-H23 lung = tested on: NCI-H23 lung
SW-620 colon = tested on: SW-620 colon
T-47D breast = tested on: T-47D breast
K-562 leukemia = tested on: K-562 leukemia
PC-3 prostate = tested on: PC-3 prostate
COLO 205 colon = tested on: COLO 205 colon
TK-10 renal = tested on: TK-10 renal
A549 NSCLC = tested on: A549 NSCLC
NCI-H460 lung = tested on: NCI-H460 lung
ACHN renal = tested on: ACHN renal
EKVX NSCLC = tested on: EKVX NSCLC
UACC-257 melanoma = tested on: UACC-257 melanoma
MALME-3M melanoma = tested on: MALME-3M melanoma
MDA-MB-435 = tested on: MDA-MB-435
HOP-92 NSCLC = tested on: HOP-92 NSCLC
NCI-H522 lung = tested on: NCI-H522 lung
MOLT-4 leukemia = tested on: MOLT-4 leukemia
OVCAR-8 ovarian = tested on: OVCAR-8 ovarian
SNB-75 CNS = tested on: SNB-75 CNS
OVCAR-4 ovarian = tested on: OVCAR-4 ovarian
HCT-116 colon = tested on: HCT-116 colon
HOP-62 NSCLC = tested on: HOP-62 NSCLC
SK-OV-3 ovarian = tested on: SK-OV-3 ovarian
SK-MEL-2 melanoma = tested on: SK-MEL-2 melanoma
SNB-19 CNS = tested on: SNB-19 CNS
SK-MEL-5 melanoma = tested on: SK-MEL-5 melanoma
HT29 colon = tested on: HT29 colon
U251 CNS = tested on: U251 CNS
SR leukemia = tested on: SR leukemia
IGROV1 ovarian = tested on: IGROV1 ovarian
SF-268 CNS = tested on: SF-268 CNS
KM12 colon = tested on: KM12 colon
LOX IMVI melanoma = tested on: LOX IMVI melanoma
CCRF-CEM leukemia = tested on: CCRF-CEM leukemia
SN12C renal = tested on: SN12C renal
MCF7 breast = tested on: MCF7 breast
HCT-15 colon = tested on: HCT-15 colon
UACC-62 melanoma = tested on: UACC-62 melanoma
RPMI-8226 leukemia = tested on: RPMI-8226 leukemia
M14 melanoma = tested on: M14 melanoma
SK-MEL-28 melanoma = tested on: SK-MEL-28 melanoma
OVCAR-3 ovarian = tested on: OVCAR-3 ovarian

CN(C)c1ccc(-c2ccc(-c3ccc(C(=N)N)cc3)s2)cc1
GI50 (BT-549 breast): 21 µM | TGI (BT-549 breast): 78.3 µM | GI50 (CAKI-1 renal): 1.79 µM | TGI (CAKI-1 renal): 3.77 µM | GI50 (RXF 393 renal): 1.81 µM | TGI (RXF 393 renal): 3.99 µM | GI50 (DU-145 prostate): 1.8 µM | TGI (DU-145 prostate): 3.37 µM | GI50 (HL-60(TB) leukemia): 2.03 µM | TGI (HL-60(TB) leukemia): 4.57 µM | GI50 (NCI/ADR-RES ovarian): 2.35 µM | TGI (NCI/ADR-RES ovarian): 5.45 µM | GI50 (786-0 renal): 2.21 µM | TGI (786-0 renal): 5.06 µM | GI50 (SF-295 CNS): 1.9 µM | TGI (SF-295 CNS): 3.61 µM | GI50 (OVCAR-5 ovarian): 1.73 µM | TGI (OVCAR-5 ovarian): 3.38 µM | GI50 (UO-31 renal): 1.64 µM | TGI (UO-31 renal): 3.22 µM | GI50 (NCI-H226 lung): 32.6 µM | TGI (NCI-H226 lung): > 100 µM | GI50 (MDA-MB-231 breast): 1.81 µM | TGI (MDA-MB-231 breast): 3.57 µM | GI50 (SF-539 CNS): 1.76 µM | TGI (SF-539 CNS): 3.38 µM | GI50 (HS 578T breast): 2.14 µM | TGI (HS 578T breast): 5.19 µM | GI50 (A498 renal): 0.0155 µM | TGI (A498 renal): 0.0866 µM

COc1ccc(OC)c(Cn2cc3c(c2-c2ccccc2)CCc2cnoc2-3)c1
GI50 (HCC-2998 colon): 8.83 µM | TGI (HCC-2998 colon): > 100 µM | GI50 (NCI-H23 lung): 7.99 µM | TGI (NCI-H23 lung): > 100 µM | GI50 (SW-620 colon): 3.69 µM | TGI (SW-620 colon): > 100 µM | GI50 (T-47D breast): 18.1 µM | TGI (T-47D breast): > 100 µM | GI50 (K-562 leukemia): 2.67 µM | TGI (K-562 leukemia): > 100 µM | GI50 (PC-3 prostate): 8.73 µM | TGI (PC-3 prostate): > 100 µM | GI50 (CAKI-1 renal): 4.35 µM | TGI (CAKI-1 renal): > 100 µM | GI50 (RXF 393 renal): 6.12 µM | TGI (RXF 393 renal): > 100 µM | GI50 (COLO 205 colon): 6.31 µM | TGI (COLO 205 colon): > 100 µM | GI50 (TK-10 renal): 8.01 µM | TGI (TK-10 renal): > 100 µM | GI50 (A549 NSCLC): 5.75 µM | TGI (A549 NSCLC): > 100 µM | GI50 (DU-145 prostate): 17.4 µM | TGI (DU-145 prostate): > 100 µM | GI50 (HL-60(TB) leukemia): 2.03 µM | TGI (HL-60(TB) leukemia): 6.52 µM | GI50 (NCI-H460 lung): 3.3 µM | TGI (NCI-H460 lung): > 100 µM | GI50 (ACHN renal): 6.89 µM | TGI (ACHN renal): > 100 µM | GI50 (EKVX NSCLC): 6.9 µM | TGI (EKVX NSCLC): > 100 µM | GI50 (NCI/ADR-RES ovarian): 2.48 µM | TGI (NCI/ADR-RES ovarian): 7.55 µM | GI50 (786-0 renal): 6.09 µM | TGI (786-0 renal): > 100 µM | GI50 (UACC-257 melanoma): 30.7 µM | TGI (UACC-257 melanoma): > 100 µM | GI50 (MALME-3M melanoma): 3.7 µM | TGI (MALME-3M melanoma): > 100 µM | GI50 (MDA-MB-435): 2.18 µM | TGI (MDA-MB-435): 9.11 µM | GI50 (HOP-92 NSCLC): 5.26 µM | TGI (HOP-92 NSCLC): > 100 µM | GI50 (SF-295 CNS): 3.19 µM | TGI (SF-295 CNS): > 100 µM | GI50 (NCI-H522 lung): 1.74 µM | TGI (NCI-H522 lung): 6.25 µM | GI50 (MOLT-4 leukemia): 3.95 µM | TGI (MOLT-4 leukemia): > 100 µM | GI50 (OVCAR-8 ovarian): 19.2 µM | TGI (OVCAR-8 ovarian): > 100 µM | GI50 (SNB-75 CNS): 2.89 µM | TGI (SNB-75 CNS): 9.9 µM | GI50 (OVCAR-4 ovarian): 11.3 µM | TGI (OVCAR-4 ovarian): > 100 µM | GI50 (HCT-116 colon): 4.04 µM | TGI (HCT-116 colon): > 100 µM | GI50 (HOP-62 NSCLC): 9.13 µM | TGI (HOP-62 NSCLC): > 100 µM | GI50 (OVCAR-5 ovarian): 10.8 µM | TGI (OVCAR-5 ovarian): > 100 µM | GI50 (UO-31 renal): 6.38 µM | TGI (UO-31 renal): > 100 µM | GI50 (SK-OV-3 ovarian): 7.48 µM | TGI (SK-OV-3 ovarian): > 100 µM | GI50 (SK-MEL-2 melanoma): 3.71 µM | TGI (SK-MEL-2 melanoma): 59.2 µM | GI50 (SNB-19 CNS): 9.43 µM | TGI (SNB-19 CNS): > 100 µM | GI50 (NCI-H226 lung): 40.8 µM | TGI (NCI-H226 lung): > 100 µM | GI50 (SK-MEL-5 melanoma): 3.7 µM | TGI (SK-MEL-5 melanoma): 40.3 µM | GI50 (HT29 colon): 3.15 µM | TGI (HT29 colon): > 100 µM | GI50 (MDA-MB-231 breast): 5.98 µM | TGI (MDA-MB-231 breast): > 100 µM | GI50 (U251 CNS): 5.38 µM | TGI (U251 CNS): > 100 µM | GI50 (SF-539 CNS): 4.24 µM | TGI (SF-539 CNS): 56.9 µM | GI50 (SR leukemia): 2.62 µM | TGI (SR leukemia): > 100 µM | GI50 (IGROV1 ovarian): 6.11 µM | TGI (IGROV1 ovarian): > 100 µM | GI50 (SF-268 CNS): 6.24 µM | TGI (SF-268 CNS): > 100 µM | GI50 (HS 578T breast): 4.95 µM | TGI (HS 578T breast): > 100 µM | GI50 (KM12 colon): 3.61 µM | TGI (KM12 colon): > 100 µM | GI50 (A498 renal): 2.12 µM | TGI (A498 renal): 9.28 µM | GI50 (LOX IMVI melanoma): 4.92 µM | TGI (LOX IMVI melanoma): > 100 µM | GI50 (CCRF-CEM leukemia): 4.48 µM | TGI (CCRF-CEM leukemia): > 100 µM | GI50 (SN12C renal): 23.8 µM | TGI (SN12C renal): > 100 µM | GI50 (MCF7 breast): 4.47 µM | TGI (MCF7 breast): > 100 µM | GI50 (HCT-15 colon): 4 µM | TGI (HCT-15 colon): > 100 µM | GI50 (UACC-62 melanoma): 3.8 µM | TGI (UACC-62 melanoma): > 100 µM | GI50 (RPMI-8226 leukemia): 6.54 µM | TGI (RPMI-8226 leukemia): > 100 µM | GI50 (M14 melanoma): 4.82 µM | TGI (M14 melanoma): > 100 µM | GI50 (SK-MEL-28 melanoma): 6.8 µM | TGI (SK-MEL-28 melanoma): > 100 µM | GI50 (OVCAR-3 ovarian): 2.7 µM | TGI (OVCAR-3 ovarian): 7.95 µM

CNc1ccc(C(=O)CC(O)CCC(C)C2OC(=O)CC(O)CC(=O)CC(O)CC(O)CC(O)CC(O)CC3(O)CC(O)C(C(=O)NCCN4CCCCC4)C(CC(OC4OC(C)C(O)C(N)C4O)/C=C/C=C/C=C/C=C\C=C/C=C/C=C/C2C)O3)cc1 (stereo unspecified)
TGI (K-562 leukemia): > 100 µM | TGI (HL-60(TB) leukemia): > 100 µM
